According to publication PMC4116524, “A virtual screen identified C96 as a novel inhibitor of phosphatidylinositol 3-kinase that displays potent preclinical activity against multiple myeloma in vitro and in vivo” (Oncotarget, 2014):
Entries after “also recorded” stand apart in the source; their conditions may differ.

Legend:
JJN3 xenograft = test: Myeloma xenograft study; format: in vivo, nude mice
Procedure: To further evaluate the anti-myeloma efficacy of C96 in vivo, a human multiple myeloma xenograft model was established by subcutaneous injection of JJN3 into nude mice. When these tumors were palpable, mice were randomly divided into two groups (n=5) and one of them were orally administrated C96 (100 mg/kg body weight, 1/10 of the oral LD50), the other one were given the same volume of vehicle on a daily base for continued 16 days. Tumor sizes and body weight were monitored every other day. […] In contrast, the tumors in the vehicle group grew in a steady rate.
Figure 7 C96 delays myeloma tumor growth in a xenograft mouse model (A) JJN3 cells were injected subcutaneously into nude mice with a density of 30 million cells/site/mouse. When tumors were palpable, mice (n=5/group) were orally given C96 (100 mg/kg body weight) in PBS containing 10% Tween 80 and 10% DMSO daily for continuous 16 days. Tumor volumes were monitored every other day. (B) Mouse body weight was monitored every other day. (C) At the end of the experiment, tumor samples from each group were subjected to immunoblotting analysis for the expression levels of p-AKT, T-AKT, p-mTOR and mTOR with specific antibodies. GAPDH was used as a loading control.
JJN3 cells (30 million cells/injection) were inoculated s.c. into the right flanks of nude mice (5-6 weeks old, female, Shanghai Slac Laboratory Animal Co. Ltd., Shanghai). When tumors were palpable, mice were randomly divided into two groups (n=5). One group was orally administrated C96 (100 mg/kg body weight, or 1/10 oral LD50) dissolved in PBS containing 10% Tween 80 and DMSO daily for continued 16 days, another group was received the vehicle only. Tumor sizes were measured every other day with a caliper and calculated according to the formula (V=0.5236a²b, where a is the smallest superficial diameter and b is the largest superficial diameter). Body weight of each mouse was also monitored. At the end of the experiment, mice were sacrificed in a CO2 chamber containing dry ice. Tumor tissues were then excised, weighed, and snap-frozen in liquid nitrogen for further studies. To examine protein expression, tumor tissues were minced and ultrasonicated in the lysis buffer to extract proteins, which were further applied for immunoblotting analyses using specific antibodies against AKT, p-AKT, p-mTOR, mTOR, and GAPDH. This xenograft study was carried out in accordance with The Code of Ethics of the World Medical Association (Declaration of Helsinki) for experiments in animals and it was approved by the Animal Ethics and Welfare Review Board of Soochow University.

[1] = system: IGF-1R phosphorylation in LP1 and JJN3 cells; test: IGF-1-induced IGF-1R phosphorylation, immunoblotting; format: cell-based; details: 100 μM, 2 hrs, IGF-1 15 min
Procedure: To elucidate this specificity, we first evaluated its effects on IGF-1R because IGF-1R as a receptor tyrosine kinase activates PI3K in the presence of IGF-1. To exclude the potential effects of C96 on IGF-1 signaling, LP1 and JJN3 cells were starved overnight followed by C96 or S14161 treatment for 2 hrs, and IGF-1 stimulation for 15 min. As expected, IGF-1 triggered AKT phosphorylation but it was suppressed by both C96 and the proven PI3K inhibitor S14161 without affecting total AKT expression (Figure 3A). […] Next, we evaluated other kinases including non-receptor kinase c-Src and a PI3K parallel kinase ERK which transduces external cellular signals. Both LP1 and JJN3 cells were treated with C96 at increasing concentrations that inhibited AKT and mTOR activation (Figure 2C).
Figure 3 C96 inhibits AKT but not IGF-1R, ERK or c-Src kinase activation (A) LP1 and JJN3 cells were starved overnight, then treated with 100 (μM of C96 or S14161 for 2 hrs, followed by IGF-1 (100 ng/mL) for 15 min. After incubation, cells were harvested and the expression of p-AKT, p-IGF-1R, total AKT (T-AKT), and IGF-1R proteins were detected by immunoblotting. (B) LP1 and JJN3 were treated with C96 at indicated concentrations for 24 hrs followed by immunoblotting assay for the expression of p-Src, c-Src, p-ERK, and ERK. GAPDH was used as a loading control. […]

LP1, OPM2 and JJN3 cells = test: MM cell growth after starvation/IGF-1 stimulation (MTT); format: cell-based; details: 0.5% FBS 12 hrs, IGF-1 100 ng/mL, 24 hrs
Text: Next, we evaluated the effects of C96 on MM cell growth by measuring viable cells after starvation/IGF-1 stimulation in the presence of C96. As shown in Supplemental Figure 2A, IGF-1 stimulated MM cell growth, but it was suppressed by C96. We also examined the effects of C96 on MM cell migration upon IGF-1 stimulation.
MM cells were dispensed in 96-well plates at a density of 8×10^3 cells per well and treated with increasing concentrations of C96 for 72 hrs, and the growth inhibitory effect of C96 on MM cells was assessed by an MTT assay as reported previously. To show the effect of C96 on cell growth in the presence of growth factor IGF-1, MM cells were first maintained in IMDM media containing 0.5% FBS for 12 hrs, followed by C96 treatment alone or in combination with 100 ng/mL of IGF-1. Cells were then incubated for another 24 hrs, relative cell proliferation was analyzed by an MTT assay.
Supplementary Figure S2: C96 inhibits MM cell proliferation and migration in the presence of IGF-1. […] Cells were then incubated for another 24 hr, cell number was analyzed using MTT staining. […] Cells were loaded onto the upper chamber of a transwell, and the lower chamber was filled with IMDM containing agonist IGF-1.After 6 hrs, cells migrating into the lower chamber were counted using a hemacytometer. […]

In the case of `O=C1NC(=O)C(=CC=Cc2cccs2)C(=O)N1` [C96, 5-(3-(2-thienyl)-2-propen-1-ylidene)-2,4,6(1H,3H,5H)-pyrimidinetrione], the “effects on body weight” value (JJN3 xenograft; 100 mg/kg oral daily, 16-day treatment) is reported as “minimal effects”, the gross toxicity (JJN3 xenograft; 100 mg/kg oral daily, 16 days) is reported as “no gross toxicity” and the tumor growth (JJN3 xenograft; 100 mg/kg oral daily, 16 days) is reported as “almost fully suppressed tumor growth; also recorded: delayed MM tumor growth”. For the same molecule, the tumor growth suppression (JJN3 xenograft; 100 mg/kg oral daily, within 16 days) was “more than 90%”, the “AKT and mTOR phosphorylation in myeloma tumor tissues” value (JJN3 xenograft; tumors excised at end of experiment, immunoblotting) was “decreased” and the “IGF-1R phosphorylation induced by IGF-1” value [1] was “not affected”. The “IGF-1 stimulated MM cell growth” value (LP1, OPM2 and JJN3 cells) was “suppressed”.
